# Patent US11000033B2, “Ketone or oxime compound, and herbicide” (NISSAN CHEMICAL CORPORATION, priority 2014, dated 2021)
# Assays:
# Format in all cases: in vivo
# rice plant = assay: Test Example 5: effect on crop by foliage application, plastic box (symbol b); conditions: 320 g/ha, 3 weeks after application
# How it was run: (§1)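 In a plastic box 7 cm deep filled with sterilized diluvial soil, seeds of crops and weeds such as Digitaria ciliaris, Avena fatua and Amaranthus retroflexus are sown in spots and covered with about 1.5 cm of soil before greenhouse growth at 25–30° C.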
# beet = assay: Test Example 5: effect on crop by foliage application, plastic box (symbol f); conditions: 320 g/ha, 3 weeks after application
# How it was run: as §1
# [1] = system: Echinochloa crus-galli var. crus-galli; assay: Test Example 3: herbicidal effect by foliage application, Wagner pot (symbol H); conditions: application herbicide amount 320 g/ha
# How it was run: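 Steps: fill pot with alluvial soil; add water to 0.1–0.5 cm depth; sow weed and rice seed; grow 14 days at 25–30 °C; spray diluted emulsion over the leaves; rate effect after 3 weeks.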
# Stellaria media = assay: Test Example 5: herbicidal effect by foliage application, plastic box (symbol P); conditions: 320 g/ha, 3 weeks after application
# How it was run: (§2)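 Leaf-applied emulsion, water-diluted to a preset herbicide dose, on two-week-old seedlings raised in a 25° C. to 30° C. greenhouse; injury rated at 3 weeks using earlier criteria.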
# corn = assay: Test Example 5: effect on crop by foliage application, plastic box (symbol c); conditions: 320 g/ha, 3 weeks after application
# How it was run: as §1
# wheat [2] = assay: Test Example 5: effect on crop by foliage application, plastic box (symbol e); conditions: 320 g/ha, 3 weeks after application
# How it was run: as §1
# wheat [3] = assay: Test Example 4: effect on crop by soil treatment (symbol e); conditions: application herbicide amount 320 g/ha
# How it was run: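 Sterilized diluvial soil, spot sowing, ~1.5 cm soil cover; greenhouse 25–30° C.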
# Alopecurus myosuroides = assay: Test Example 5: herbicidal effect by foliage application, plastic box (symbol J); conditions: 320 g/ha, 3 weeks after application
# How it was run: as §2
# transplanted rice plant = assay: Test Example 1: effect on crop, application before weed generation in submerged conditions (symbol a); conditions: application herbicide amount 320 g/ha
# How it was run: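 Rice at 2.5 leaf stage transplanted into submerged soil (4 cm depth) sown with three weed species; herbicide applied before weed emergence.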
# Amaranthus retroflexus = assay: Test Example 5: herbicidal effect by foliage application, plastic box (symbol N); conditions: 320 g/ha, 3 weeks after application
# How it was run: as §2
# Scirpus juncoides = assay: Test Example 2: herbicidal activity, application during weed generation in submerged conditions (symbol B); conditions: Table 23; application herbicide amount 320 g/ha; grade 0-5 by criteria of Test Example 1
# How it was run: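 Submerged alluvial soil (4 cm) sown with mixed seed; greenhouse 25–30° C. 1–2 leaf: diluted emulsion onto water surface, preset dose. Visual score, 3 wk.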
# [4] = system: directly sowed rice plant; assay: Test Example 3: effect on crop by foliage application, Wagner pot (symbol b); conditions: application herbicide amount 320 g/ha
# How it was run: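 Plants are raised from seed in flooded paddy conditions: water stands 0.1–0.5 cm over alluvial soil, and the pot is kept in a greenhouse at 25–30 °C. Species sown are barnyardgrass (E. crus-galli var. crus-galli), Leptochloa chinensis, Cyperus difformis and rice.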
# [5] = system: Echinochloa oryzacola Vasing.; assay: Test Example 1: herbicidal activity, application before weed generation in submerged conditions (symbol A); conditions: application herbicide amount 320 g/ha
# How it was run: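 In a flooded pot test with alluvial soil, the emulsion-formulated compound was diluted with water to a predetermined amount and applied to the floodwater immediately on the sowing day. Pots were held in a greenhouse at 25–30 °C for 3 weeks before each weed was rated.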
SMILES,"b: directly sowed rice plant, effect on crop grade (rice plant)","f: beet, effect on crop grade (beet)","herbicidal effect on H (Echinochloa crus-galli var. crus-galli), grade 0-5 [1]","P: Stellaria media, herbicidal effect grade (Stellaria media)","c: corn, effect on crop grade (corn)","e: wheat, effect on crop grade (wheat [2])",e (wheat) effect on crop grade (wheat [3]),"J: Alopecurus myosuroides, herbicidal effect grade (Alopecurus myosuroides)","Effect grade on crop, a: transplanted rice plant (transplanted rice plant)","N: Amaranthus retroflexus, herbicidal effect grade (Amaranthus retroflexus)","Herbicidal effect grade, B: Scirpus juncoides (Scirpus juncoides)","effect on crop b (directly sowed rice plant), grade 0-5 [4]","Herbicidal effect grade, A: Echinochloa oryzacola Vasing. [5]","b: directly sowed rice plant, effect on crop (criteria 0-5) (rice plant)","f: beet, effect on crop (criteria 0-5) (beet)","P: Stellaria media, herbicidal effect (criteria 0-5) (Stellaria media)","c: corn, effect on crop (criteria 0-5) (corn)","e: wheat, effect on crop (criteria 0-5) (wheat [2])","J: Alopecurus myosuroides, herbicidal effect (criteria 0-5) (Alopecurus myosuroides)","N: Amaranthus retroflexus, herbicidal effect (criteria 0-5) (Amaranthus retroflexus)"
CON=C(CC1CC1)CC1CC(O)=C(c2c(C)cc(C)cc2C)C1=O (centres unmarked) [1-070],5 (Herbicidal ratio of 90% or more (almost completely withered)),0 (Herbicidal ratio of 5% or lower (almost no effect)),5 (Herbicidal ratio of 90% or more (almost completely withered)),0 (Herbicidal ratio of 5% or lower (almost no effect)),4 (Herbicidal ratio of 70% or higher and lower than 90%),0 (Herbicidal ratio of 5% or lower (almost no effect)),0 (Herbicidal ratio of 5% or lower (almost no effect)),5 (Herbicidal ratio of 90% or more (almost completely withered)),4 (Herbicidal ratio of 70% or higher and lower than 90%),0 (Herbicidal ratio of 5% or lower (almost no effect)),0 (Herbicidal ratio of 5% or lower (almost no effect)),5 (Herbicidal ratio of 90% or more (almost completely withered)),4 (Herbicidal ratio of 70% or higher and lower than 90%),,,,,,,
CON=C(C)CC1CC(OC(=O)COc2ccccc2[N+](=O)[O-])=C(c2c(C)cc(C)cc2C)C1=O (centres unmarked) [1-071],5 (Herbicidal ratio of 90% or more (almost completely withered)),0 (Herbicidal ratio of 5% or lower (almost no effect)),5 (Herbicidal ratio of 90% or more (almost completely withered)),0 (Herbicidal ratio of 5% or lower (almost no effect)),5 (Herbicidal ratio of 90% or more (almost completely withered)),5 (Herbicidal ratio of 90% or more (almost completely withered)),4 (Herbicidal ratio of 70% or higher and lower than 90%),5 (Herbicidal ratio of 90% or more (almost completely withered)),5 (Herbicidal ratio of 90% or more (almost completely withered)),0 (Herbicidal ratio of 5% or lower (almost no effect)),3 (Herbicidal ratio of 40% or higher and lower than 70%),5 (Herbicidal ratio of 90% or more (almost completely withered)),5 (Herbicidal ratio of 90% or more (almost completely withered)),,,,,,,
CON=C(C)CC1CC(OC(=O)COc2ccc(C)cc2)=C(c2c(C)cc(C)cc2C)C1=O (centres unmarked) [1-072],5 (Herbicidal ratio of 90% or more (almost completely withered)),1 (Herbicidal ratio of 5% or higher and lower than 20%),4 (Herbicidal ratio of 70% or higher and lower than 90%),2 (Herbicidal ratio of 20% or higher and lower than 40%),5 (Herbicidal ratio of 90% or more (almost completely withered)),5 (Herbicidal ratio of 90% or more (almost completely withered)),4 (Herbicidal ratio of 70% or higher and lower than 90%),5 (Herbicidal ratio of 90% or more (almost completely withered)),5 (Herbicidal ratio of 90% or more (almost completely withered)),5 (Herbicidal ratio of 90% or more (almost completely withered)),3 (Herbicidal ratio of 40% or higher and lower than 70%),5 (Herbicidal ratio of 90% or more (almost completely withered)),5 (Herbicidal ratio of 90% or more (almost completely withered)),,,,,,,
CON=C(C)CC1CC(OC(=O)COc2ccc(F)cc2)=C(c2c(C)cc(C)cc2C)C1=O (centres unmarked) [1-073],,,5 (Herbicidal ratio of 90% or more (almost completely withered)),,,,4 (Herbicidal ratio of 70% or higher and lower than 90%),,5 (Herbicidal ratio of 90% or more (almost completely withered)),,5 (Herbicidal ratio of 90% or more (almost completely withered)),5 (Herbicidal ratio of 90% or more (almost completely withered)),5 (Herbicidal ratio of 90% or more (almost completely withered)),5 (Herbicidal ratio of 90% or more (almost completely withered)),1 (Herbicidal ratio of 5% or higher and lower than 20%),2 (Herbicidal ratio of 20% or higher and lower than 40%),4 (Herbicidal ratio of 70% or higher and lower than 90%),5 (Herbicidal ratio of 90% or more (almost completely withered)),5 (Herbicidal ratio of 90% or more (almost completely withered)),2 (Herbicidal ratio of 20% or higher and lower than 40%)
CON=C(C)CC1CC(OC(=O)COc2cccc(C#N)c2)=C(c2c(C)cc(C)cc2C)C1=O (centres unmarked) [1-074],,,5 (Herbicidal ratio of 90% or more (almost completely withered)),,,,4 (Herbicidal ratio of 70% or higher and lower than 90%),,5 (Herbicidal ratio of 90% or more (almost completely withered)),,4 (Herbicidal ratio of 70% or higher and lower than 90%),5 (Herbicidal ratio of 90% or more (almost completely withered)),5 (Herbicidal ratio of 90% or more (almost completely withered)),5 (Herbicidal ratio of 90% or more (almost completely withered)),0 (Herbicidal ratio of 5% or lower (almost no effect)),1 (Herbicidal ratio of 5% or higher and lower than 20%),5 (Herbicidal ratio of 90% or more (almost completely withered)),5 (Herbicidal ratio of 90% or more (almost completely withered)),5 (Herbicidal ratio of 90% or more (almost completely withered)),0 (Herbicidal ratio of 5% or lower (almost no effect))
